Measured values: US20180155757A1, “IDENTIFICATION OF BACTERIA THAT ARE RESISTANT TO CARBAPENEMS BY MEMBRANE IMPERVIOUSNESS” (BIOMÉRIEUX, priority 2015, published 2018)
Read-outs that look alike come from different tables or passages of the source.

How the values were obtained:
Experiment in all cases: Etest MIC of indicator carbapenems on MH II agar without/with PMBN
Type in all cases: cell-based
[1] = tested on: E. cloacae 1008074 (VIM producer)
Summary of the method: (§1)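 MICs are read directly from Etest strips of imipenem, ertapenem or meropenem after 16–20 h at 35° C. The agar is MH II with PMBN at 0 up to ⅕ of its own MIC, inoculated by swab at 0.5 McFarland.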

[2] = tested on: E. cloacae 1008080 (IMP producer); conditions: in µg/mL
Summary of the method: as §1

[3] = tested on: E. cloacae 1109137 (OXA-48 producer)
Summary of the method: as §1

[4] = tested on: E. cloacae 1204051 (membrane impermeability)
Summary of the method: as §1

[5] = tested on: E. cloacae 1204052 (membrane impermeability)
Summary of the method: as §1

[6] = tested on: E. cloacae 1204056 (membrane impermeability)
Summary of the method: as §1

[7] = tested on: E. cloacae 1204153 (membrane impermeability); conditions: in µg/mL
Summary of the method: as §1

[8] = tested on: E. coli 1008078 (VIM producer)
Summary of the method: as §1

[9] = tested on: E. coli SAB 108 (porin−); conditions: Escherichia coli
Summary of the method: as §1

[10] = tested on: Enterobacter aerogenes EA 27 (porin−); conditions: Klebsiella aerogenes, E. aerogenes EA 27 (porin−), read-out: MIC
Summary of the method: as §1

[11] = tested on: Enterobacter aerogenes EA 5 (porin−); conditions: Klebsiella aerogenes, E. aerogenes EA 5 (porin−)
Summary of the method: as §1

[12] = tested on: K. pneumoniae 1012142 (KPC-2 producer)
Summary of the method: as §1

[13] = tested on: K. pneumoniae 1103183 (NDM producer)
Summary of the method: as §1

[14] = tested on: K. pneumoniae 1204035 (membrane impermeability); conditions: in µg/mL
Summary of the method: as §1

[15] = tested on: K. pneumoniae 1204036 (membrane impermeability)
Summary of the method: as §1

[16] = tested on: K. pneumoniae KP 55 (porin−); conditions: Klebsiella pneumoniae
Summary of the method: as §1

[17] = tested on: K. pneumoniae KP 63 (porin−); conditions: Klebsiella pneumoniae
Summary of the method: as §1

**Q.** What does the source list for `C[C@@H](O)[C@H]1C(=O)N2C(C(=O)O)=C(S[C@@H]3CN[C@H](C(=O)N(C)C)C3)[C@H](C)[C@H]12` [MP, meropenem]?
**A.** MIC ([1]; [PMBN] 0, Table 4a): 0.38 µg/mL; MIC ([1]; [PMBN] 100, Table 4a): 1.5 µg/mL; MIC ([1]; [PMBN] 200, Table 4a): 1 µg/mL; MIC ([1]; [PMBN] 300, Table 4a): 1.5 µg/mL; MIC ([2]; [PMBN] 0, Table 4a): 2; MIC ([2]; [PMBN] 100, Table 4a): 8; MIC ([2]; [PMBN] 200, Table 4a): 6; MIC ([2]; [PMBN] 300, Table 4a): 4-6; MIC ([3]; [PMBN] 0, Table 4a): 3 µg/mL; MIC ([3]; [PMBN] 100, Table 4a): 3 µg/mL; MIC ([3]; [PMBN] 200, Table 4a): 1.5 µg/mL; MIC ([3]; [PMBN] 300, Table 4a): 2 µg/mL; MIC ([4]; [PMBN] 0, Table 4a): 4 µg/mL; MIC ([4]; [PMBN] 100, Table 4a): 2 µg/mL; MIC ([4]; [PMBN] 200, Table 4a): 0.25 µg/mL; MIC ([4]; [PMBN] 300, Table 4a): 0.25 µg/mL; MIC ([5]; [PMBN] 0, Table 4a): 6 µg/mL; MIC ([5]; [PMBN] 100, Table 4a): 0.75 µg/mL; MIC ([5]; [PMBN] 200, Table 4a): 1.5 µg/mL; MIC ([5]; [PMBN] 300, Table 4a): 0.5 µg/mL; MIC ([6]; [PMBN] 0, Table 4a): 12 µg/mL; MIC ([6]; [PMBN] 100, Table 4a): 2 µg/mL; MIC ([6]; [PMBN] 200, Table 4a): 1 µg/mL; MIC ([6]; [PMBN] 300, Table 4a): 0.75 µg/mL; MIC ([7]; [PMBN] 0, Table 4a): 4; MIC ([7]; [PMBN] 100, Table 4a): 0.75-1; MIC ([7]; [PMBN] 200, Table 4a): 1; MIC ([7]; [PMBN] 300, Table 4a): 0.75; MIC ([8]; [PMBN] 0, Table 4a): 0.5 µg/mL; MIC ([8]; [PMBN] 100, Table 4a): 0.5 µg/mL; MIC ([8]; [PMBN] 200, Table 4a): 0.25 µg/mL; MIC ([8]; [PMBN] 300, Table 4a): 0.25 µg/mL; MIC ([9]; [PMBN] 0): 2 µg/mL; MIC ([9]; [PMBN] 50 μg/ml): 0.125 µg/mL; MIC ([9]; [PMBN] 100 μg/ml): 0.125 µg/mL; MIC ([9]; [PMBN] 150 μg/ml): 0.094 µg/mL; MIC ([9]; [PMBN] 200 μg/ml): 0.094 µg/mL; MIC ([10]; [PMBN] 0, Table 4): 4 µg/mL; MIC ([10]; [PMBN] 50 μg/ml): 0.75 µg/mL; MIC ([10]; [PMBN] 100 μg/ml): 0.5 µg/mL; MIC ([10]; [PMBN] 150 μg/ml): 0.19 µg/mL; MIC ([10]; [PMBN] 200 μg/ml): 0.094 µg/mL; MIC ([11]; [PMBN] 0, Table 4): 3 µg/mL; MIC ([11]; [PMBN] 50 μg/ml): 2 µg/mL; MIC ([11]; [PMBN] 100 μg/ml): 1.5 µg/mL; MIC ([11]; [PMBN] 150 μg/ml): 0.75 µg/mL; MIC ([11]; [PMBN] 200 μg/ml): 0.75 µg/mL; MIC ([12]; [PMBN] 0, Table 4a): > 32 µg/mL; MIC ([12]; [PMBN] 100, Table 4a): > 32 µg/mL; MIC ([12]; [PMBN] 200, Table 4a): > 32 µg/mL; MIC ([12]; [PMBN] 300, Table 4a): > 32 µg/mL; MIC ([13]; [PMBN] 0, Table 4a): > 32 µg/mL; MIC ([13]; [PMBN] 100, Table 4a): > 32 µg/mL; MIC ([13]; [PMBN] 200, Table 4a): 24 µg/mL; MIC ([13]; [PMBN] 300, Table 4a): > 32 µg/mL; MIC ([14]; [PMBN] 0, Table 4a): 8-12; MIC ([14]; [PMBN] 100, Table 4a): 2; MIC ([14]; [PMBN] 200, Table 4a): 1.5; MIC ([14]; [PMBN] 300, Table 4a): 1.5; MIC ([15]; [PMBN] 0, Table 4a): 32 µg/mL; MIC ([15]; [PMBN] 100, Table 4a): 16 µg/mL; MIC ([15]; [PMBN] 200, Table 4a): 6 µg/mL; MIC ([15]; [PMBN] 300, Table 4a): 4 µg/mL; MIC ([16]; [PMBN] 0): 0.19 µg/mL; MIC ([16]; [PMBN] 50 μg/ml): 0.125 µg/mL; MIC ([16]; [PMBN] 100 μg/ml): 0.064 µg/mL; MIC ([16]; [PMBN] 150 μg/ml): 0.064 µg/mL; MIC ([16]; [PMBN] 200 μg/ml): 0.047 µg/mL; MIC ([17]; [PMBN] 0): 0.25 µg/mL; MIC ([17]; [PMBN] 50 μg/ml): 0.25 µg/mL; MIC ([17]; [PMBN] 100 μg/ml): 0.094 µg/mL; MIC ([17]; [PMBN] 150 μg/ml): 0.064 µg/mL; MIC ([17]; [PMBN] 200 μg/ml): 0.023 µg/mL
